According to ChEMBL document CHEMBL5104217, “Identification of a Target Site for Covalent Inhibition of Protein Phosphohistidine Phosphatase 1” (ACS Med Chem Lett, 2022):
Active and inactive are the calls of the source. No cut-off for these calls is given here.

How the values were obtained:
[1] = molecular target: T1, 14 kDa phosphohistidine phosphatase (Homo sapiens) (UniProt Q9NRX4); test: Covalent inhibition of human PHPT1 expressed in Escherichia coli BL21 (DE3) using pNPP as substrate at 10 equiv preincubated for 60 mins by multimode microplate reader analysis
T1 sequence (whole entry): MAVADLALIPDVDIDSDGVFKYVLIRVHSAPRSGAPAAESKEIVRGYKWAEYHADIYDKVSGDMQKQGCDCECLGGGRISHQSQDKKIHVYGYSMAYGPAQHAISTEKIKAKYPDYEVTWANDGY

[2] = molecular target: T1, 14 kDa phosphohistidine phosphatase (Homo sapiens); test: Covalent inhibition of human PHPT1 expressed in Escherichia coli BL21 (DE3) assessed as inhibition of dephosphorylation of histidine-phosphorylated BSA at 10 equiv preincubated for 1 hr followed by substrate addition and measured for 150 secs by Western blot analysis; details: time 3750.0 sec
[3] = molecular target: T1, 14 kDa phosphohistidine phosphatase (Homo sapiens); test: Covalent inhibition of human PHPT1 expressed in Escherichia coli BL21 (DE3) assessed as increase in protein mass at 10 equiv incubated for 1 hr by RP-HPLC based ESI-MS analysis
[4] = molecular target: T2, 14 kDa phosphohistidine phosphatase (Homo sapiens, UniProt Q9NRX4); test: Inhibition of human PHPT1 expressed in Escherichia coli BL21 (DE3) using pNPP as substrate incubated for 1 hr by multimode microplate reader analysis
T2 sequence (Q9NRX4 whole entry): T1 sequence (whole entry)

Homo sapiens [5] = species: Homo sapiens; test: Covalent binding affinity to human PHPT1 C69A mutant expressed in Escherichia coli BL21 (DE3) assessed as covalent adduct formation at 10 equiv incubated for 1 hr by RP-HPLC based ESI-MS analysis
[6] = molecular target: T2, 14 kDa phosphohistidine phosphatase; test: Inhibition of human PHPT1 expressed in Escherichia coli BL21 (DE3) using pNPP as substrate assessed as inhibition constant by reciprocal analysis
[7] = molecular target: T1, 14 kDa phosphohistidine phosphatase (Homo sapiens); test: Inhibition of human PHPT1 expressed in Escherichia coli BL21 (DE3) using pNPP as substrate assessed as Kinact by reciprocal analysis
Homo sapiens [8] = species: Homo sapiens; test: Covalent binding affinity to human PHPT1 C71A mutant expressed in Escherichia coli BL21 (DE3) assessed as covalent adduct formation at 10 equiv incubated for 1 hr by RP-HPLC based ESI-MS analysis
[9] = molecular target: T1, 14 kDa phosphohistidine phosphatase (Homo sapiens); test: Inhibition of human PHPT1 expressed in Escherichia coli BL21 (DE3) using pNPP as substrate assessed as Kinact/Ki by reciprocal analysis

| SMILES | inhibition [1] | inhibition [2] | inhibition [3] | IC50 [4] [µM] | Activity (Homo sapiens [5]) | Ki [6] [µM] | Kinact [7] [s⁻¹] | Activity (Homo sapiens [8]) | Ratio [9] [M⁻¹ s⁻¹] |
| --- | --- | --- | --- | --- | --- | --- | --- | --- | --- |
| C=C(CC)C(=O)c1ccc(OCC(=O)O)c(Cl)c1Cl [ETHACRYNIC ACID] | Active | Active | Active | 18.3 | Active | 183 | 0.00267 | Active | 14.6 |
| CCN1C(=O)C=CC1=O [N-ETHYLMALEIMIDE] |  |  |  |  |  | 209 | 0.0075 |  | 31 |
